Here are results for seven compounds from ChEMBL document CHEMBL1152182, “Synthesis and structure-activity relationship of 7-azaindole piperidine derivatives as CCR2 antagonists” (Bioorg Med Chem Lett, 2008).

For series [1], the target named is C-C chemokine receptor type 2 (Homo sapiens, UniProt P41597). Description: Antagonist activity at human CCR2. The class given is functional.
Series [2] can be described thus: Oral bioavailability in rat at 10 mg/kg. The series is classed as ADME, organism-based. Conditions: in vivo.
Series [3] has as its target T1, Cytochrome P450 3A4 (Homo sapiens, UniProt P08684). Briefly: Inhibition of human CYP3A4 using dibenzylfluorescein as substrate. The series is classed as ADME.
The target in another series is T2, Cytochrome P450 1A2 (Homo sapiens, UniProt P05177).
T2 sequence (P05177 whole entry): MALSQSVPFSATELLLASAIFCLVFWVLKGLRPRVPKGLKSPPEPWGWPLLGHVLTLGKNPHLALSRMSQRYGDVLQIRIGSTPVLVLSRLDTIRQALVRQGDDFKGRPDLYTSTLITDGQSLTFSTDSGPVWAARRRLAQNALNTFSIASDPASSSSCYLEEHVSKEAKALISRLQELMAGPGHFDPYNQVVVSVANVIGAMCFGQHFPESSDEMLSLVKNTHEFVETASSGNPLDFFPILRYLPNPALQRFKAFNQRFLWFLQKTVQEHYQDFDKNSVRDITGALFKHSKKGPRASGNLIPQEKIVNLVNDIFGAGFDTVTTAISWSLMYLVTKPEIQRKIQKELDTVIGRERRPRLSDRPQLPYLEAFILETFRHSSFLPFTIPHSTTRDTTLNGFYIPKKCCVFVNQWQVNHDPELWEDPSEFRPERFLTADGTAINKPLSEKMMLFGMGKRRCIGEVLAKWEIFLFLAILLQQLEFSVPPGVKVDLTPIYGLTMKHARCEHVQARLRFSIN
Briefly: Inhibition of human CYP1A2. The series is classed as ADME.

For series [4], the target named is T1, Cytochrome P450 3A4. Description: Inhibition of human CYP3A4 using 7-benzyloxyquinoline as substrate. The series is classed as ADME.
Series [5] has as its target T1, Cytochrome P450 3A4. Briefly: Inhibition of human CYP3A4 using 7-benzyloxy-4-trifluoromethylcoumarin as substrate. The class given is ADME.
Another series has as its target Cytochrome P450 2C19 (Homo sapiens, UniProt P33261). Briefly: Inhibition of human CYP2C19. The series is classed as ADME.
In a further series the target is Cytochrome P450 2D6 (Homo sapiens, UniProt P10635). Description: Inhibition of human CYP2D6. The class given is ADME.
The nature of series [6]: Half life in rat at 10 mg/kg, po. The class given is ADME, organism-based. As to conditions: in vivo. Set-up: dose 10 mg/kg, route oral.
A short description of series [7]: Cmax in rat at 10 mg/kg, po. Further details: dose 10 mg/kg, route oral. Conditions: in vivo. The series is classed as ADME, organism-based.

pIC50: −log10 of the molar value.

T1 sequence (P08684 whole entry): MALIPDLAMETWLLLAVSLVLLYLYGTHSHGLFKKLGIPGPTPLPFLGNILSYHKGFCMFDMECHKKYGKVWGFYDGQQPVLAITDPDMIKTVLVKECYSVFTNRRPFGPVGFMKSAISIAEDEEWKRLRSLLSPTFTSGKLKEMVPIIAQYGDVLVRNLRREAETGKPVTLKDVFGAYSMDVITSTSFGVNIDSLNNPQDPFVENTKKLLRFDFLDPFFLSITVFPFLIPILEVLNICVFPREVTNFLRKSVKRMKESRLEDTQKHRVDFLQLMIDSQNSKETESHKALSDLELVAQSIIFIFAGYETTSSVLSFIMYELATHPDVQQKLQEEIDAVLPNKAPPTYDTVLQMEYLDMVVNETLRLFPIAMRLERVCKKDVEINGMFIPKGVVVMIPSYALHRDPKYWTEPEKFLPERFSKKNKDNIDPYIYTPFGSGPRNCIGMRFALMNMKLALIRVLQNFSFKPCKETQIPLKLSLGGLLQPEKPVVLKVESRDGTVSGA
Chain of C-C chemokine receptor type 2 (P41597 whole entry): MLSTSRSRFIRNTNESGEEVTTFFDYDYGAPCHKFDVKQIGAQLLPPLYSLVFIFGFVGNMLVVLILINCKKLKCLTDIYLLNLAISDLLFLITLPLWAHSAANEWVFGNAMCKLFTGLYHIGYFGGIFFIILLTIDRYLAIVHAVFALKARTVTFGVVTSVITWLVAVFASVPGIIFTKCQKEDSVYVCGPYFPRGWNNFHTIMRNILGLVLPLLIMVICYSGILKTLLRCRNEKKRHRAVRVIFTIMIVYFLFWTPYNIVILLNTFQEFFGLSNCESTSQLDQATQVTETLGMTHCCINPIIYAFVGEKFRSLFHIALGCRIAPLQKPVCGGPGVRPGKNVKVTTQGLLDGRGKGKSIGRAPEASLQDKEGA
Chain of Cytochrome P450 2C19 (P33261 whole entry): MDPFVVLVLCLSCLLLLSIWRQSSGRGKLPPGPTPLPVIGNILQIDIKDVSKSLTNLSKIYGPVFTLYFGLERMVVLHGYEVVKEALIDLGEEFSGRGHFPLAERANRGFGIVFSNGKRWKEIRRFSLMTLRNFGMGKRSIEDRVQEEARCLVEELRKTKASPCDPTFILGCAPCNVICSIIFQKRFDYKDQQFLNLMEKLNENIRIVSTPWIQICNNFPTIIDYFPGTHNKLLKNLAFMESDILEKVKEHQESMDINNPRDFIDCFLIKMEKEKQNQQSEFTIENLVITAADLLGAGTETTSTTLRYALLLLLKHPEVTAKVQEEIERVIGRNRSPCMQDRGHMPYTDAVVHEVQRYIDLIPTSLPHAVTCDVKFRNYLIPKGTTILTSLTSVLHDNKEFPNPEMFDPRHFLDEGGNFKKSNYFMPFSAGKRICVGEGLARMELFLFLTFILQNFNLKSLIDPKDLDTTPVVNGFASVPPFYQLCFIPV
Chain of Cytochrome P450 2D6 (P10635 whole entry): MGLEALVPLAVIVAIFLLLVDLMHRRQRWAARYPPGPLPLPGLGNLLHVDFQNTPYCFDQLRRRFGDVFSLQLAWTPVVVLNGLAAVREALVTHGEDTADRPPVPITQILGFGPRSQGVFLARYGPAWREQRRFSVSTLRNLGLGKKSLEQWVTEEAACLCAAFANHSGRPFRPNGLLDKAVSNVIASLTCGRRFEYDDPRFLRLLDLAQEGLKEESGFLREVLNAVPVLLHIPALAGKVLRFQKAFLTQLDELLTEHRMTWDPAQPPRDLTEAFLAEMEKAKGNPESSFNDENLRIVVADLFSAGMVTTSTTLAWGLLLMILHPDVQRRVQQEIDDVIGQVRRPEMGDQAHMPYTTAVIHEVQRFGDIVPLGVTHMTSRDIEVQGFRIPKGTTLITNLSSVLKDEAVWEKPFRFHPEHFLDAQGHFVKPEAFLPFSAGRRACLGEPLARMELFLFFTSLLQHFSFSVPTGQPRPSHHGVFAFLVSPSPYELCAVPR

In turn, `O=C(O)C(C1CCN(C(=O)/C=C/c2cc(F)c(F)c(F)c2)CC1)N1CCC(c2c[nH]c3ncccc23)CC1` (stereo unspecified) showed a negative logarithm of the IC50 (pIC50) in series [1] of 7.77.

In the case of `O=C(/C=C/c1cc(F)cc(F)c1)N1CCC([C@@H](CO)N2CCC(c3c[nH]c4ncccc34)CC2)CC1`, in series [2], the bioavailability worked out at 36%. The pIC50 on Cytochrome P450 3A4 [3] is 4.69; in series [1] it was 8.40; on Cytochrome P450 1A2, below 4.40; on Cytochrome P450 3A4 [4] it was below 4.40; on Cytochrome P450 3A4 [5], 4.60; on Cytochrome P450 2C19, 4.57. Further, at Cytochrome P450 2D6, the negative logarithm of the IC50 (pIC50) is 4.88. The compound also gave a half-life in series [6] of 336 min. In series [7], this compound returned a Cmax of 341 ng/mL.

Take `O=C(/C=C/c1cc(F)c(F)c(F)c1)N1CCC(C(CO)N2CCC(c3c[nH]c4ncccc34)CC2)CC1` (racemic): the negative-log IC50 (pIC50) in [1] was 8.15.

In series [1], `O=C(/C=C/c1ccc(Cl)c(Cl)c1)N1CCC(C(CO)N2CCC(c3c[nH]c4ncccc34)CC2)CC1` (racemic) gave a pIC50 of 8.22.

The compound `O=C(Nc1ccc(Cl)c(Cl)c1)N1CCC(C(CO)N2CCC(c3c[nH]c4ncccc34)CC2)CC1` (racemic) had a negative logarithm of the IC50 (pIC50) in series [1] of 7.85.

Take `O=C(/C=C/c1cc(F)cc(F)c1)N1CCC(C(CO)N2CCC(c3c[nH]c4ncccc34)CC2)CC1` (racemic): the pIC50 in [1] is 8.22.

In the case of `O=C(/C=C/c1cc(F)c(F)c(F)c1)N1CCC(CN2CCC(c3c[nH]c4ncccc34)CC2)CC1`, in [1], the pIC50 was 5.89.
